Patent US9884806B2, “Cyclic vinylogous amides as bromodomain inhibitors” (ICAHN SCHOOL OF MEDICINE AT MOUNT SINAI, priority 2013, dated 2018)

Experiments:
[1] = molecular target: T1, BRD4_2 (Homo sapiens, UniProt O60885); test: Fluorescence anisotropy binding assay (competition with FITC-labeled MS417 probe), BRD4_2; settings: FITC-MS417 probe 80 nM, PBS pH 7.4, 1 hour, 25° C.
T1 construct: contains two tandem bromodomains (BrD1 and BrD2)

[2] = molecular target: T2, first bromodomain (BrD1) of human BRD4 (Homo sapiens, UniProt O60885); test: Fluorescence anisotropy binding assay (competition with FITC-labeled MS417 probe); settings: FITC-MS417 probe 80 nM, PBS pH 7.4, 1 hour, 25° C., read-out: BRD4_1 IC50
T2 construct: the first bromodomain (BrD1) of human BRD4; poly-His (cleaved yes); made in house
Procedure: Fluorescence Anisotropy Binding Assay
Expression and purification of the first bromodomain (BrD1) of human BRD4 in poly-His tag form was performed using a procedure described in the literature [See Zeng et al. Structure 16, 643-652 (2008) and Zhang et al., J Biol Chem 287, 28840-28851 (2012).] The protein was purified by using affinity chromatography on a nickel-IDA column (Invitrogen), followed by the removal of poly-His tag by thrombin cleavage.
Binding affinity of the newly synthesized compounds to the BRD4 BrD1 was assessed in a fluorescence anisotropy assay using a fluorescein isothiocyanate (FITC)-labeled MS417 as an assay probe (Zhang et al. 2008 op.cit.). Competition binding was performed with a BrD protein (0.25 to 1 μM) and the fluorescent probe (80 nM), and increasing concentration of unlabeled competing ligand in a PBS buffer (pH 7.4) in total volume of 80 μL. Measurements were obtained after 1 hour incubation of the fluorescent ligand and the protein at 25° C. with Safire 2 microplate reader (Tecan). In the assay, fluorescent ligand concentration was ≦2Kd, and protein concentration was set at which 50-80% of fluorescent ligand is bound. Dissociation constant of a competing ligand was calculated with the correction to Cheng-Prussoff equation introduced by Nicolovska-Coleska and colleagues [Nikolovska-Coleska, Z. et al., Anal Biochem 332, 261-273 (2004). Assuming one-site competitive binding model, the equation used to calculate Ki's from IC50 values recovered from fitting data using Prism:
[formula] where [I50] is the concentration of free inhibitor at 50% inhibition, [L50], the concentration of free labeled ligand at 50% inhibition, and [P0], concentration of free protein at 0% inhibition. Note that Kd for each protein-probe pair is the limit of resolvable Ki in a competition assay.

Structure (SMILES) | IC50 [1] [µM] | IC50 [2] [µM]
CC1=C(N[C@H]2CC[C@H](C(=O)Nc3ccc(C)cc3)CC2)CCC1=O [Example 04-32, (1R,4R)-4-((2-methyl-3-oxocyclopent-1-en-1-yl)amino)-N-(p-tolyl)-cyclohexanecarboxamide] | > 10 | > 10
CC1=C(N[C@H]2CC[C@@H](C(=O)Nc3ccccc3)CC2)CCC1=O [Example 04-36, (1S,4S)-4-((2-methyl-3-oxocyclopent-1-en-1-yl)amino)-N-phenylcyclohexane-carboxamide] | > 10 | > 10
CC1=C(N[C@H]2CC[C@@H](C(=O)Nc3ccc(C)cc3)CC2)CCC1=O [Example 04-40] | > 10 | > 10
CC1=C(Nc2ccc(C(=O)NC3CCCCC3)c(Cl)c2)CCC1=O [Example 04-43, 2-chloro-N-cyclohexyl-4-((2-methyl-3-oxocyclopent-1-en-1-yl)amino)benzamide] | > 10 | > 10
COc1cccc(NC(=O)c2ccc(NC3=C(C)C(=O)CC3)cc2Cl)c1 [Example 04-47, 2-chloro-N-(3-methoxyphenyl)-4-((2-methyl-3-oxocyclopent-1-en-1-yl)amino)benzamide] | > 10 | > 10
CC1=C(Nc2ccc(C(=O)Nc3cccc(C)c3)c(Cl)c2)CCC1=O [Example 04-50, 2-chloro-4-((2-methyl-3-oxocyclopent-1-en-1-yl)amino)-N-(m-tolyl)benzamide] | > 10 | > 10
CC1=C(Nc2ccc(C(=O)Nc3ccc(C)cc3)c(Cl)c2)CCC1=O [Example 04-51, 2-chloro-4-((2-methyl-3-oxocyclopent-1-en-1-yl)amino)-N-(p-tolyl)benzamide] | > 10 | > 10
CC1=C(Nc2ccc(C(=O)Nc3cccc(F)c3)c(Cl)c2)CCC1=O [Example 04-52, 2-chloro-N-(3-fluorophenyl)-4-((2-methyl-3-oxocyclopent-1-en-1-yl)amino)-benzamide] | > 10 | > 10
CNC(=O)c1ccc(NC2=C(C)C(=O)CC2)c(OC)c1 [Example 04-53, 3-methoxy-N-methyl-4-((2-methyl-3-oxocyclopent-1-en-1-yl)amino)benzamide] | 1 to 10 | 1 to 10
COc1cc(C(=O)NC2CCCCC2)ccc1NC1=C(C)C(=O)CC1 [Example 04-54, N-cyclohexyl-3-methoxy-4-((2-methyl-3-oxocyclopent-1-en-1-yl)amino)-benzamide] | 1 to 10 | 1 to 10
COc1ccccc1NC(=O)c1ccc(NC2=C(C)C(=O)CC2)c(OC)c1 [Example 04-57, 3-methoxy-N-(2-methoxyphenyl)-4-((2-methyl-3-oxocyclopent-1-en-1-yl)amino)-benzamide] | 1 to 10 | 1 to 10
COc1cccc(NC(=O)c2ccc(NC3=C(C)C(=O)CC3)c(OC)c2)c1 [Example 04-58, 3-methoxy-N-(3-methoxyphenyl)-4-((2-methyl-3-oxocyclopent-1-en-1-yl)amino)-benzamide] | 1 to 10 | 1 to 10
COc1ccc(NC(=O)c2ccc(NC3=C(C)C(=O)CC3)c(OC)c2)cc1 [Example 04-59, 3-methoxy-N-(4-methoxyphenyl)-4-((2-methyl-3-oxocyclopent-1-en-1-yl)amino)-benzamide] | 1 to 10 | 1 to 10
COc1cc(C(=O)Nc2cccc(C)c2)ccc1NC1=C(C)C(=O)CC1 [Example 04-61, 3-methoxy-4-((2-methyl-3-oxocyclopent-1-en-1-yl)amino)-N-(m-tolyl)benzamide] | 1 to 10 | 1 to 10
COc1cc(C(=O)Nc2ccc(C)cc2)ccc1NC1=C(C)C(=O)CC1 [Example 04-62, 3-methoxy-4-((2-methyl-3-oxocyclopent-1-en-1-yl)amino)-N-(p-tolyl)benzamide] | 1 to 10 | 1 to 10
CNC(=O)c1ccc(NC2=C(C)C(=O)CC2)cc1OC [Example 04-65] | 1 to 10 | 1 to 10
COc1cc(NC2=C(C)C(=O)CC2)ccc1C(=O)NC1CCCCC1 [Example 04-66, N-cyclohexyl-2-methoxy-4-((2-methyl-3-oxocyclopent-1-en-1-yl)amino)-benzamide] | 1 to 10 | 1 to 10
CNC(=O)c1ccc(NC2=C(C)C(=O)CC2)c(C)c1 [Example 04-77, N,3-dimethyl-4-((2-methyl-3-oxocyclopent-1-en-1-yl)amino)benzamide] | > 10 | 1 to 10

More lines, now with the values ahead:

IC50 [1] [µM] | IC50 [2] [µM] | Structure (SMILES)
> 10 | 1 to 10 | CC1=C(Nc2ccc(C(=O)Nc3cccc4ccccc34)c(Cl)c2)CCC1=O [Example 04-44, 2-chloro-4-((2-methyl-3-oxocyclopent-1-en-1-yl)amino)-N-(naphthalen-1-yl)-benzamide]
> 10 | > 10 | CC1=C(Nc2ccc(C(=O)Nc3ccccc3)c(Cl)c2)CCC1=O [Example 04-45, 2-chloro-4-((2-methyl-3-oxocyclopent-1-en-1-yl)amino)-N-phenylbenzamide]
> 10 | 1 to 10 | COc1ccccc1NC(=O)c1ccc(NC2=C(C)C(=O)CC2)cc1Cl [Example 04-46, 2-chloro-N-(2-methoxyphenyl)-4-((2-methyl-3-oxocyclopent-1-en-1-yl)amino)benzamide]
1 to 10 | 1 to 10 | COc1ccc(NC(=O)c2ccc(NC3=C(C)C(=O)CC3)cc2Cl)cc1 [Example 04-48, 2-chloro-N-(4-methoxyphenyl)-4-((2-methyl-3-oxocyclopent-1-en-1-yl)amino)-benzamide]
> 10 | 1 to 10 | CC1=C(Nc2ccc(C(=O)Nc3ccccc3C)c(Cl)c2)CCC1=O [Example 04-49, 2-chloro-4-((2-methyl-3-oxocyclopent-1-en-1-yl)amino)-N-(o-tolyl)benzamide]
1 to 10 | 1 to 10 | COc1cc(C(=O)Nc2cccc3ccccc23)ccc1NC1=C(C)C(=O)CC1 [Example 04-55, 3-methoxy-4-((2-methyl-3-oxocyclopent-1-en-1-yl)amino)-N-(naphthalen-1-yl)-benzamide]
1 to 10 | 1 to 10 | COc1cc(C(=O)Nc2ccccc2)ccc1NC1=C(C)C(=O)CC1 [Example 04-56, 3-methoxy-4-((2-methyl-3-oxocyclopent-1-en-1-yl)amino)-N-phenylbenzamide]
1 to 10 | 1 to 10 | COc1cc(C(=O)Nc2ccccc2C)ccc1NC1=C(C)C(=O)CC1 [Example 04-60, 3-methoxy-4-((2-methyl-3-oxocyclopent-1-en-1-yl)amino)-N-(o-tolyl)benzamide]
> 10 | < 1 | COc1cc(NC2=C(C)C(=O)CC2)ccc1C(=O)Nc1cccc2ccccc12 [Example 04-67, 2-methoxy-4-((2-methyl-3-oxocyclopent-1-en-1-yl)amino)-N-(naphthalen-1-yl)benzamide]
1 to 10 | 1 to 10 | COc1cc(NC2=C(C)C(=O)CC2)ccc1C(=O)Nc1ccccc1 [Example 04-68, 2-methoxy-4-((2-methyl-3-oxocyclopent-1-en-1-yl)amino)-N-phenylbenzamide]
> 10 | < 1 | COc1ccccc1NC(=O)c1ccc(NC2=C(C)C(=O)CC2)cc1OC [Example 04-69, 2-methoxy-N-(2-methoxyphenyl)-4-((2-methyl-3-oxocyclopent-1-en-1-yl)amino)-benzamide]
1 to 10 | 1 to 10 | COc1cccc(NC(=O)c2ccc(NC3=C(C)C(=O)CC3)cc2OC)c1 [Example 04-70, 2-methoxy-N-(3-methoxyphenyl)-4-((2-methyl-3-oxocyclopent-1-en-1-yl)amino)-benzamide]
1 to 10 | 1 to 10 | COc1ccc(NC(=O)c2ccc(NC3=C(C)C(=O)CC3)cc2OC)cc1 [Example 04-71, 2-methoxy-N-(4-methoxyphenyl)-4-((2-methyl-3-oxocyclopent-1-en-1-yl)amino)-benzamide]
1 to 10 | < 1 | COc1cc(NC2=C(C)C(=O)CC2)ccc1C(=O)Nc1ccccc1C [Example 04-72, 2-methoxy-4-((2-methyl-3-oxocyclopent-1-en-1-yl)amino)-N-(o-tolyl)benzamide]
1 to 10 | 1 to 10 | COc1cc(NC2=C(C)C(=O)CC2)ccc1C(=O)Nc1cccc(C)c1 [Example 04-73, 2-methoxy-4-((2-methyl-3-oxocyclopent-1-en-1-yl)amino)-N-(m-tolyl)benzamide]
1 to 10 | 1 to 10 | COc1cc(NC2=C(C)C(=O)CC2)ccc1C(=O)Nc1ccc(C)cc1 [Example 04-74, 2-methoxy-4-((2-methyl-3-oxocyclopent-1-en-1-yl)amino)-N-(p-tolyl)benzamide]
